Source: ChEMBL document CHEMBL1177795, “Synthesis of two marine farnesylacetones that dilate the basilar arteries of rabbits” (Bioorg Med Chem Lett, 2010)
Values belong to the compound of their own block, whether it stands above or below them.

Columns and labels:
[1] = Vasorelaxant activity against depolarization-induced basilar artery constriction in white rabbit at 10 uM; assay type: functional, Oryctolagus cuniculus; design: scale not given: the % may be the effect or the level left
[2] = Vasorelaxant activity against depolarization-induced basilar artery constriction in white rabbit; assay type: functional, tissue-based, Oryctolagus cuniculus

Structure (SMILES): CC(=O)CC/C=C(\C)CCC/C(C)=C/C#N
- Activity [1]: 10.3%

- EC50 [2]: 2380 nM
Structure (SMILES): CC(=O)CC/C=C(\C)CCC/C(C)=C/C(O)CC(C)C (stereo unspecified)
- Activity [1]: 98.9%

Structure (SMILES): C/C(=C\C=O)CCC/C(C)=C/CCC1(C)OCCO1
- Activity [1]: 20.1%

Structure (SMILES): CC(=O)CC/C=C(\C)CC/C=C(\C)CC#N
- Activity [1]: 13.1%

Structure (SMILES): CC(=O)CC/C=C(\C)CCC/C(C)=C/C=O
- Activity [1]: 12.6%

Structure (SMILES): C/C(=C\CCC1(C)OCCO1)CCC/C(C)=C/C(=O)CC(C)C
- Activity [1]: 83.3%

Structure (SMILES): C/C(=C\CC/C(C)=C/CCC1(C)OCCO1)CC#N
- Activity [1]: 33.5%

- EC50 [2]: 1410 nM
Structure (SMILES): C/C(=C\CCC1(C)OCCO1)CCC/C(C)=C/C(O)CC(C)C (stereo unspecified)
- Activity [1]: 99.8%

Structure (SMILES): C/C(=C\C#N)CCC/C(C)=C/CCC1(C)OCCO1
- Activity [1]: 44.6%
